Results on 18 compounds are retold here after patent publication US9566265B2, “Carbazole compounds and therapeutic uses of the compounds” (Incuron, LLC, priority 2008, dated 2017).

Structures are written as SMILES.

The test system of one assay is p53. Put plainly: p53 activation assay, p53 responsive luciferase reporter cell line. It counts as cell-based, human. To be noted: HT1080-L or RCC45ConALuc reporter cells, 16 h; read-out: EC50 value (p53 activation). The method, then: The potency of a present carbazole compound is determined by measuring an ability of the compound to inhibit NF-κB activity or to activate p53. […] Theoretically, such assays of the dose-response effect of activator compounds can be described as a sigmoidal curve expressing a degree of activation as a function of concentration. The curve also theoretically passes through a point at which the concentration is sufficient to increase activity to a level that is 50% that of the difference between a baseline and the maximal activity in the assay. […] Determination of an EC50 value is made using conventional biochemical (acellular) assay techniques or cell-based assay techniques.
The potency of a carbazole compound is determined by measuring an ability of the compound to activate p53.
The p53 activation assay for determination of the EC50 value was performed as follows:
HT1080-L (human fibrosarcoma cells with ConALuc reporter)
RCC45ConALuc (human renal cell carcinoma cell line with ConALuc reporter)
1. Two types of standard cells were used, either HT1080-L or RCC45ConALuc cells. Both cell lines stably express a p53 responsive luciferase reporter construct.
2. HT1080-L cells were grown in DMEM medium containing 10% FBS. RCC45ConALuc cells were grown in RPMI medium containing 10% FBS (Pen/Strep can be added to a final concentration of 1%, if desired). Both cell lines were grown in a humidified incubator at 37° C. with 5% CO2. For normal culturing, both cell lines were split using 1× trypsin-EDTA at a ratio of 1:20 for HT1080-L and 1:5 for RCC45ConALuc cells every 3-4 days (when cells are 80-90% confluent).
3. A day before the experiment, the cells are trypsinized for about 5 minutes in 1× tripsin/EDTA solution in 37° C. incubator and plated in 96 well plates. HT1080-L cells were seeded at a density of 1×10^4/well in standard DMEM medium in a volume of 50 μl. RCC45ConALuc were seeded at a density of 2×10^4/well in the volume of 50 uL in standard RPMI medium.
4. The next day, various carbazole compounds were prepared by dilution of stock solutions in standard DMEM medium such that the cells were treated with the final chemical concentrations in Table 1 below. Stock solutions were made up in DMSO. Typically, chemicals were made up as 20 mM stock solutions.
5. Each tested compound used two rows of a 96-well plate, thus four compounds (e.g., W, X, Y, Z) were tested in one plate simultaneously. In addition to test compounds, each plate included positive and negative controls. As positive control, 9aa was used at a dose of 3 μM. As a negative control, DMSO was used in final concentration 0.1%.
1. Dilutions of chemicals added to the plate were made up as 2× concentrations in standard DMEM and added to corresponding well in a volume of 50 μl.
2. Chemicals were diluted in standard DMEM by two time serial dilutions starting from 40 μM (2× of highest concentration, e.g., 20 μM). For one cell line, the minimum volume was 125 μL of 2× working solution of chemical of each concentration in standard DMEM.
4. Sixteen hours following compound addition, all wells with the highest concentrations of compounds are checked microscopically for the presence of toxic effect, because death of cells caused by compounds may not allow detecting luciferase activity. If cytotoxocity is evident, other doses of the same compounds were checked for the presence of toxicity. The lowest dose causing toxic effect was recorded.
5. After microscopic examination, 15 μl of Bright Glo luciferase assay system were added to each well and after 5 min incubation at RT, the plates were read on a 96 well plate luminometer with a measurement time of 0.1 sec. A shaking step was included before measurement.
6. The folds of luciferase activation for each concentration of each chemical were calculated by dividing the detected luciferase activity at each chemical concentration by the average of the luciferase activity for the DMSO control on the same plate.
A general note: A reporter such as luciferase makes a cellular process visible.
One may read the EC50 as the concentration at which the effect is half-maximal. Turning to `CCN(CC)CCn1c2ccccc2c2cc(C(C)=O)c(O)cc21` [Compound 22, 3-Acetyl-2-hydroxy-9-N,N-diethylaminoethylcarbazole], the concentration for a half-maximal effect (EC50) turned out to be 0.53 µM. Still for that read-out and setting: then `CN(C)CCCn1c2ccc([N+](=O)[O-])cc2c2cc([N+](=O)[O-])ccc21` [Example 21], with 0.83 µM; and `CCCNCCCn1c2ccc(C(C)=O)cc2c2c3c(ccc21)C(=O)CC3` [Example 6, 9-Acetyl-6-[3-(propylamino)propyl]-1,6-dihydrocyclopenta[c]carbazol-3(2H)-one], with 0.24 µM.

Still in this assay, the particulars now being: Homo sapiens, 16 h, HT1080-L or RCC45ConALuc reporter cells, 16 h; read-out: EC50 value (p53 activation).
For `CC(=O)c1ccc2c(c1)c1cc(C(C)=O)ccc1n2CCCN(C)C` [Compound 3b], the EC50 stood at 0.49 µM.

For the compound `CCN(CC)CCn1c2ccc(C(C)=O)cc2c2cc(C(C)=O)ccc21` [Compound 3a], the EC50 was determined as 0.29 µM. Same read-out and setting: to `CC(=O)c1cc2c3c4c(ccc3n(CCCN(C)C)c2cc1O)C(=O)N(C)C4` [Compound 19e] belongs 0.07 µM; to `CCN(CC)CCn1c2ccc(C(C)=O)cc2c2cc(C(C)=O)c(O)cc21` [Compound 19a], 0.4 µM. `CC(=O)c1ccc2c(c1)c1cc(C(C)=O)ccc1n2CCC1CCCN1C` (stereo not drawn) [Compound 3e]: the EC50 is 0.78 µM. With `CCC(=O)c1ccc2c(c1)c1cc(C(=O)CC)ccc1n2CCCN(C)C` [Compound 7d], the EC50 turned out to be 0.64 µM. Same read-out and setting: then `CCCNCCCn1c2ccc3c(c2c2c4c(ccc21)C(=O)CC4)CCC3=O` [Example 14], with 0.05 µM. Same read-out and setting: then `CCN(CC)CCn1c2ccc(C(=O)NC)cc2c2cc(C(=O)NC)ccc21` [Example 27], with 0.54 µM; and `CC(=O)c1ccc2c(c1)c1c3c(ccc1n2CC[C@@H]1CCCN1C)C(=O)CC3` [Compound 18c-2], with 0.1 µM.

Still in this assay, the particulars now being: Homo sapiens, Table 3, test compounds of the malaria experiment; read-out: EC50, μM (p53 activation assay).
As to `CCN(CC)CCCC(C)Nc1c2ccc(Cl)cc2nc2ccc(OC)cc12` (stereo not drawn) [Quinacrine, reference compound], the EC50 was about 5 µM.

Still in this assay, the particulars now being: Homo sapiens; HT1080-L or RCC45ConALuc reporter cells, 16 h; read-out: EC50 value (p53 activation).
For `CNCCCn1c2ccc([N+](=O)[O-])cc2c2cc([N+](=O)[O-])ccc21` [Example 25], the EC50 is 0.88 µM. Same read-out and setting: to `O=[N+]([O-])c1ccc2c(c1)c1cc([N+](=O)[O-])ccc1n2CCCN1CCCC1` [Example 24] belongs 0.78 µM; to `CCN(CC)CCCn1c2ccc([N+](=O)[O-])cc2c2cc([N+](=O)[O-])ccc21` [Example 23], 0.88 µM.

The same assay, now with this note: structural analysis, FIGS. 6 and 7.
Turning to `CN(C)CCCN(c1ccccc1)c1ccc2c(c1)CCC2=O` [Compound 200, reference compound], the “p53 activation, active or inactive carbazole” value is “inactive”.

Regarding `CCN(CC)CCn1c2ccc(C(C)=O)cc2c2cc(C(C)=O)ncc21` [Compound 300, reference compound], the “p53 activation, active or inactive carbazole” value is “active”.
